US10792377B2, “Compounds and method for imaging cancer” (Vanderbilt University, priority 2017, dated 2020)
Like-named read-outs stand apart in the source and are kept apart here.

Key:
murine COX-2 = biological target: T1, murine COX-2 (Mus musculus, UniProt Q05769); assay: In vitro purified COX-2 inhibition assay (TLC, 14C-arachidonic acid); type: biochemical; conditions: for COX-2 Selectivity Index (COX-1 IC50/COX-2 IC50): in vitro, purified enzymes
T1 sequence (Q05769 18-604): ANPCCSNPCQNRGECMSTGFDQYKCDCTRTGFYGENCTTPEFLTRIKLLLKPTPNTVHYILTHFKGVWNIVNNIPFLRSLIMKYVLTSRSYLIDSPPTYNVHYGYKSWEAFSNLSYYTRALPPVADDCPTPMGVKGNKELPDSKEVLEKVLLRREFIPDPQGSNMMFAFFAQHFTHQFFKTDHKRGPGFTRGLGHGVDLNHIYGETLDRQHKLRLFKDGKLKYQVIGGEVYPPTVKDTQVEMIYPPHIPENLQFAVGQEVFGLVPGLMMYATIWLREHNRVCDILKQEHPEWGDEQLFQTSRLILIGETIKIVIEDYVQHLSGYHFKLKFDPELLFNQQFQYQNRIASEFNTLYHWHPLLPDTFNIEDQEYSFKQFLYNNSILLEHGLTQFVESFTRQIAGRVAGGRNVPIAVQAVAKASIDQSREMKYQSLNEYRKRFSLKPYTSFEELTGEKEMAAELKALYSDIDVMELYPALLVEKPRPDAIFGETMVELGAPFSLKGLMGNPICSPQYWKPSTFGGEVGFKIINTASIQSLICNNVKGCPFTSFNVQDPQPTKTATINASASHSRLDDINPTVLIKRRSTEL
Method: (§1) The in vitro cyclooxygenase (ovine COX-1 or human COX-2) inhibitory activities of these probes were tested by a previously described TLC assay (FIGS. 19-21). Briefly, reaction mixtures of 200 μL consisted of hematin-reconstituted protein in 100 mM Tris-HCl, pH 8.0, 500 μM phenol, and [1-^14C]arachidonic acid (50 μM, about 55-57 mCi/mmol, Perkin Elmer).
Inhibition Assay Using Purified COX-1 and COX-2. Inhibition of purified ovine COX-1 or mouse COX-2 by test compounds was assayed by a previously described method, which quantifies the conversion of [1-^14C]arachidonic acid to [1-^14C]prostaglandin products. Reaction mixtures of 200 ∝L consisted of hematin-reconstituted protein in 100 mM Tris-HCl, pH 8.0, 500 μM phenol, and [1-^14C]arachidonic acid (50 μM, ˜55-57 mCi/mmol, Perkin Elmer). For the time-dependent inhibition assay, hematin-reconstituted COX-1 ([…]) was preincubated at 25° C. for 17 min and 37° C. for 3 min with varying inhibitor concentrations in dimethylsulfoxide followed by the addition of [1-^14C]arachidonic acid (50 μM) for 30 s at 37° C. Reactions were terminated by solvent extraction in diethyl ether:methanol:1 M citrate buffer, pH 4.0 (30:4:1). The phases were separated by centrifugation at 2000 g for 2 min, and the organic phase was spotted on a thin-layer chromatography plate (EMD Kieselgel 60, VWR). The plate was developed in ethyl acetate:methylene chloride:glacial AcOH (75:25:1) at 4° C. Radiolabeled products were quantified with a radioactivity scanner (Bioscan, Inc., Washington, D.C.).

ovine COX-1 = biological target: T2, ovine COX-1 (Ovis aries, UniProt P05979); assay: In vitro purified COX-1 inhibition assay (TLC, 14C-arachidonic acid); type: biochemical
T2 sequence (P05979 25-600): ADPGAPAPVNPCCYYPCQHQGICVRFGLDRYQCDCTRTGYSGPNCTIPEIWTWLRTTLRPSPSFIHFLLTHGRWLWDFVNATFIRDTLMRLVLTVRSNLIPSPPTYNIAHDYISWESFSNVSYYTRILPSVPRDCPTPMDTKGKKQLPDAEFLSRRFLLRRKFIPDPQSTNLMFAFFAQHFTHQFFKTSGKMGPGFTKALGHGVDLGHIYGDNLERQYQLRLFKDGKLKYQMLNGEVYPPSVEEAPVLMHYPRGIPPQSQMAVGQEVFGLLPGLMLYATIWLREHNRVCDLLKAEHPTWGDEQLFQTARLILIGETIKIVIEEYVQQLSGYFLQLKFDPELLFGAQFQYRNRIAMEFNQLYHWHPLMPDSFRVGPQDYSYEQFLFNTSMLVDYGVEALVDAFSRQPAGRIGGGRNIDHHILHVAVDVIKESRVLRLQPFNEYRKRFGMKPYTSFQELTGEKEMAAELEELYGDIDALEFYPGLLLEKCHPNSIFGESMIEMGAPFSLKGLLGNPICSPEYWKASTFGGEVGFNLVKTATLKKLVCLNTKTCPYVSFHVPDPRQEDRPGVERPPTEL
Method: as §1
Inhibition Assay Using Purified COX-1 and COX-2. Inhibition of purified ovine COX-1 or mouse COX-2 by test compounds was assayed by a previously described method, which quantifies the conversion of [1-^14C]arachidonic acid to [1-^14C]prostaglandin products. Reaction mixtures of 200 ∝L consisted of hematin-reconstituted protein in 100 mM Tris-HCl, pH 8.0, 500 μM phenol, and [1-^14C]arachidonic acid (50 μM, ˜55-57 mCi/mmol, Perkin Elmer). […] Reactions were terminated by solvent extraction in diethyl ether:methanol:1 M citrate buffer, pH 4.0 (30:4:1). The phases were separated by centrifugation at 2000 g for 2 min, and the organic phase was spotted on a thin-layer chromatography plate (EMD Kieselgel 60, VWR). The plate was developed in ethyl acetate:methylene chloride:glacial AcOH (75:25:1) at 4° C. Radiolabeled products were quantified with a radioactivity scanner (Bioscan, Inc., Washington, D.C.).

[1] = system: 4T1 orthotopic breast cancer xenografts; assay: In vivo image-guidance of chemocoxib A delivery, orthotopic 4T1 breast cancer xenografts; conditions: tumor homogenate, LC-MS, 49 h after CA-FQ-NPs (1 mg/kg CA, 1 mg/kg FQ, s.c.)
Method: To generate orthotopic breast cancer xenografts, the 4T1 tumor cells (1×10^6 in 200 μL sterile PBS) were injected into the inguinal mammary fat-pads of athymic Balb/C nu/nu female mice (4-6 weeks old, Jax Mice). Tumors were full-grown by 4-5 weeks (tumor volume=length×width^2×0.52).
The animals were dosed with CA-FQ-NPs in PBS (1 mg/kg CA, 1 mg/kg FQ, s.c.) and imaged on a Xenogen IVIS200 optical imaging instrument at 0.5 h, 1 h, 3 h, 6 h, 28 h, and 49 h post-injection. […] After in vivo imaging, the 49 h animals group was euthanized, and brain, muscle, tumor, liver, lung, and kidney tissues were collected (FIG. 32D).

hCOX-2 in 1483 cells = biological target: T3, hCOX-2 in 1483 cells (Homo sapiens, UniProt P35354); assay: Intact cell COX-2 inhibition assay in 1483 HNSCC cells; type: cell-based; conditions: high throughput screening, intact cancer cells; read-out: COX-2 positive 1483 HNSCC cells IC50
T3 construct: cells that express high levels of COX-2 were selected; endogenous in cells; host or cells: 1483 human head and neck squamous cell carcinoma (HNSCC) cells
T3 sequence (P35354 18-604): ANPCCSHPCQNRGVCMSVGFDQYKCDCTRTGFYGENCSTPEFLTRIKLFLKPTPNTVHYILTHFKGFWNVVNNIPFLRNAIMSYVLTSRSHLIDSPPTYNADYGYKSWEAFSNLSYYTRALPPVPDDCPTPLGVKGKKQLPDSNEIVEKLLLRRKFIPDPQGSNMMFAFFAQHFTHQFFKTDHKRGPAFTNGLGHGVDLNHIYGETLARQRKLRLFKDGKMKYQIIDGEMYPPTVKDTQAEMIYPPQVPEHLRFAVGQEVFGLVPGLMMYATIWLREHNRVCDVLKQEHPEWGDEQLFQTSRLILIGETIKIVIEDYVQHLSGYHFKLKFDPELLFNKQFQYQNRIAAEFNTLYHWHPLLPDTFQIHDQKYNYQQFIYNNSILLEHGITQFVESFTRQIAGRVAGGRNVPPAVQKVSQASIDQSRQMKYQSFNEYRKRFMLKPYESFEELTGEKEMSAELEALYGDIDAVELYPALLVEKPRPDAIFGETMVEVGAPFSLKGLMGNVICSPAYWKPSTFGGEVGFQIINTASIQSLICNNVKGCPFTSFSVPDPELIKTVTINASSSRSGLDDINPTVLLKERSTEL
Method: Following the promising results from the purified enzyme assay, the ability of compound 1 to inhibit COX-2 in intact cells was examined using a previously reported method. 1483 human head and neck squamous cell carcinoma (1483 HNSCC) cells that express high levels of COX-2 were selected. […]
Cell Culture and In Vitro Intact Cell Metabolism Assay. Inhibition of COX-2 in intact cells by test compounds was assayed by a previously described method. Human 1483 head and neck squamous cell carcinoma (HNSCC) cells (passage 8-18, mycoplasma negative by a polymerase chain reaction detection method) were cultured in DMEM/F12+10% fetal bovine serum+Antibiotic/Antimycotic in 6-well plates to 60% confluence. […] Reactions were terminated and analyzed by thin layer chromatography as described above.

[2] = Fluorometry: extinction, quantum yield, fluorescence in DMSO/EtOH; type: physicochemical
Method: The TEMPO- and PROXYL-fluorocoxib probes are non-fluorescent (Φfl<0.3) in their non-trapped form, whereas fluorocoxib A or B are highly fluorescent (Φfl[…]) (FIG. 13). However, the absorbance and fluorescence of the TEMPO- and PROXYL-fluorocoxib probes increases in a time-dependent fashion when incubated in a DMSO/EtOH solution (FIGS. 14-15). Referring to FIG. 15, it is noted that at about 16 hours, fluorescence (ex 586 nm) read about 120,000 cps at 607 nm. Turning to FIG. 16, as compared to 5-ROX acid, which had extinction of 36/mM/cm at 580 nm and quantum yield of 0.94 at 604 nm, and fluorocoxib A, which had extinction of 45/mM/cm at 579 nm and quantum yield of 0.93 at 602 nm, fluorocoxib Q1 had extinction of less than 0.4/mM/cm at 586 nm and quantum yield of less than 0.36 at 607 nm. Without wishing to be bound by theory, it is believed that the time-dependent increase in fluorescence and measured fluorescence at 607 nm is the result of reduction/oxidation of fluorocoxib Q1 in the DMSO/EtOH solution (FIG. 16).
Fluorometry. Steady state fluorescence excitation and emission spectra were determined for each compound with a Spex 1681 Fluorolog spectrofluorometer, equipped with a 450 W xenon arc lamp. […]

[3] = mCOX-2 IC50, purified murine COX-2 (63 nM), inhibitor 20 min, then 1-14C-AA (50 μM) 37° C. 30 s, duplicates
[4] = COX-2 IC50, in vitro purified cox assay

**Q.** With `COc1ccc2c(c1)c(CC(=O)NCCCCNC(=O)c1ccc(C3=c4cc5c6c(c4Oc4c3cc3c7c4CCCN7CCC3)CCC[N+]=6CCC5)c(C(=O)OC3CC(C)(C)N([O])C(C)(C)C3)c1)c(C)n2C(=O)c1ccc(Cl)cc1` [Compound 4] as the compound, how does the “COX-2 Selectivity Index (COX-1 IC50/COX-2 IC50)” value (murine COX-2) read?
**A.** >20

**Q.** What about the IC50 (murine COX-2; [3]) of the same compound?
**A.** 1240 nM

**Q.** What about the IC50 (ovine COX-1) of the same compound?
**A.** > 25 µM

**Q.** For `COc1ccc2c(c1)c(CC(=O)NCCCCNC(=O)c1ccc(C(=O)NC3CC(C)(C)N([O])C(C)(C)C3)c(C3=c4cc5c6c(c4Oc4c3cc3c7c4CCCN7CCC3)CCC[N+]=6CCC5)c1)c(C)n2C(=O)c1ccc(Cl)cc1` [Compound 2], which IC50 (murine COX-2; [4]) is on record?
**A.** 332 nM

**Q.** What about the “COX-2 Selectivity Index (COX-1 IC50/COX-2 IC50)” value (murine COX-2) of the same compound?
**A.** >75

**Q.** What about the IC50 (murine COX-2; [3]) of the same compound?
**A.** 330 nM

**Q.** And the IC50 (ovine COX-1)?
**A.** > 25 µM

**Q.** Which results are given for `COc1ccc2c(c1)c(CC(=O)NCCCCNC(=O)c1ccc(C(=O)[O-])c(C3=c4cc5c6c(c4Oc4c3cc3c7c4CCCN7CCC3)CCC[N+]=6CCC5)c1)c(C)n2C(=O)c1ccc(Cl)cc1` [Fluorocoxib B, reference compound]?
**A.** COX-2 Selectivity Index (COX-1 IC50/COX-2 IC50) (murine COX-2): >31; IC50 (murine COX-2; purified murine COX-2 (63 nM), inhibitor 20 min, then 1-14C-AA (50 μM) 37° C. 30 s, duplicates, read-out: mCOX-2 IC50): 800 nM; IC50 (ovine COX-1; purified ovine COX-1 (22.5 nM), inhibitor 20 min, then 1-14C-AA (50 μM) 37° C. 30 s, duplicates, read-out: oCOX-1 IC50): > 25 µM

**Q.** What does the source list for `COc1ccc2c(c1)c(CC(=O)NCCCCNC(=O)c1ccc(C3=c4cc5c6c(c4Oc4c3cc3c7c4CCCN7CCC3)CCC[N+]=6CCC5)c(C(=O)Nc3ccc(C(=O)OC4CC(C)(C)N([O])C(C)(C)C4)cc3)c1)c(C)n2C(=O)c1ccc(Cl)cc1` [Compound 3]?
**A.** IC50 (murine COX-2; [4]): 460 nM; COX-2 Selectivity Index (COX-1 IC50/COX-2 IC50) (murine COX-2): >54; IC50 (ovine COX-1): > 25 µM

**Q.** Which “COX-2 Selectivity Index (COX-1 IC50/COX-2 IC50)” value (murine COX-2) does the source give for `COc1ccc2c(c1)c(CC(=O)NCCCCNC(=O)c1ccc(C3=c4cc5c6c(c4Oc4c3cc3c7c4CCCN7CCC3)CCC[N+]=6CCC5)c(C(=O)NCC3CC(C)(C)N([O])C3(C)C)c1)c(C)n2C(=O)c1ccc(Cl)cc1` (centres unmarked) [Compound 5] here?
**A.** >13

**Q.** And the IC50 (murine COX-2; [3])?
**A.** 1800 nM

**Q.** What about the IC50 (ovine COX-1) of the same compound?
**A.** > 25 µM

**Q.** With `COc1ccc2c(c1)c(CC(=O)NCCCCNC(=O)CCC(=O)O[C@H]1c3cc4c(cc3[C@@H](c3cc(OC)c(OC)c(OC)c3)[C@H]3C(=O)OC[C@@H]31)OCO4)c(C)n2C(=O)c1ccc(Cl)cc1` [chemocoxib A, reference compound] as the compound, how does the “level in tumor tissue” value [1] read?
**A.** 3.1 pmol/g tissue

**Q.** What about the IC50 (hCOX-2 in 1483 cells) of the same compound?
**A.** 200 nM

**Q.** With `O=C(O)c1ccc(C(=O)[O-])c(C2=c3cc4c5c(c3Oc3c2cc2c6c3CCCN6CCC2)CCC[N+]=5CCC4)c1` [5-ROX acid] as the compound, how does the extinction ([2]; at 580 nm (5-ROX acid), 579 nm (fluorocoxib A), 586 nm (fluorocoxib Q1)) read?
**A.** 36 mM⁻¹ cm⁻¹

**Q.** And the quantum yield ([2]; at 604 nm (5-ROX acid), 602 nm (fluorocoxib A), 607 nm (fluorocoxib Q1))?
**A.** 0.94
